Laboratory results from publication PMC10648875 (Antimicrobial Agents and Chemotherapy, 2023).
In brackets after ≈: the same amount, converted by molar mass. Where two headings read alike, the source gives them in different places.

Legend:
[1] = test system: PAM4743 producing CTX-M-15; experiment: MIC, engineered isogenic strain; format: cell-based, P. aeruginosa; conditions: CTX-M-15, class A; BLIs at fixed 4 µg/mL
PAM4801 producing GES-20 = experiment: MIC, engineered isogenic strain; format: cell-based, P. aeruginosa; conditions: GES-20, class A; BLIs at fixed 4 µg/mL
PAM4689 producing KPC-3 = experiment: MIC, engineered isogenic strain; format: cell-based, P. aeruginosa; conditions: KPC-3, class A; BLIs at fixed 4 µg/mL
PAM4874 producing SHV-12 = experiment: MIC, engineered isogenic strain; format: cell-based, P. aeruginosa; conditions: SHV-12, class A; BLIs at fixed 4 µg/mL
PAM4876 producing OXA-72 = experiment: MIC, engineered isogenic strain; format: cell-based, P. aeruginosa; conditions: OXA-72, class D; BLIs at fixed 4 µg/mL
PAM4795 producing VIM-1 = experiment: MIC, engineered isogenic strain; format: cell-based, P. aeruginosa; conditions: VIM-1, class B; BLIs at fixed 4 µg/mL
PAM4880 producing L1 = experiment: MIC, engineered isogenic strain; format: cell-based, P. aeruginosa; conditions: L1, class B; BLIs at fixed 4 µg/mL
[2] = test system: carbapenem-resistant strains of Enterobacterales with cefepime-taniborbactam MIC >8 µg/mL; experiment: MIC testing of CRE with reduced cefepime-taniborbactam susceptibility (Table 6, Fig 1); format: cell-based
Description: Isolates were tested for antimicrobial susceptibility using the broth microdilution methodology per CLSI M07 (2018) guidelines ([40]). JMI Laboratories produced frozen-form 96-well panels with cation-adjusted Mueller-Hinton broth as the testing medium. Current CLSI quality assurance practices were followed when performing the susceptibility tests. MIC values were validated by concurrently testing the following CLSI-recommended ([27]) QC reference strains: E. coli NCTC 13353 (CTX-M-15), Klebsiella pneumoniae ATCC BAA-2814 (KPC-3), Klebsiella pneumoniae ATCC BAA-1705 (KPC-2), and K. pneumoniae ATCC 700603 (SHV-18). The inoculum density during susceptibility testing was monitored by bacterial colony counts. Where applicable, QC ranges for tested reference strains were those approved or published by the CLSI ([27]).

[3] = test system: carbapenem-resistant Enterobacterales (subset of 507 isolates); experiment: organism not typed; format: cell-based; conditions: xeruborbactam and vaborbactam fixed 8 mg/L, all other BLIs 4 mg/L; for MIC50: read-out: MIC50; for MIC90: read-out: MIC90

CO/N=C(\C(=O)N[C@@H]1C(=O)N2C(C(=O)[O-])=C(C[N+]3(C)CCCC3)CS[C@H]12)c1csc(N)n1 [FEP, cefepime]
MIC [1]: > 64 µg/mL | MIC (PAM4801 producing GES-20): 2 µg/mL (≈ 4.16 µM) | MIC (PAM4689 producing KPC-3): > 64 µg/mL | MIC (PAM4874 producing SHV-12): 64 µg/mL (≈ 133 µM) | MIC (PAM4876 producing OXA-72): 2 µg/mL (≈ 4.16 µM) | MIC (PAM4795 producing VIM-1): > 64 µg/mL | MIC (PAM4880 producing L1): 4 µg/mL (≈ 8.32 µM) | MIC50 [2]: 64 µg/mL | MIC90 [2]: > 64 µg/mL | MIC50 ([2]; All MBL (N = 129)): 64 µg/mL | MIC90 ([2]; All MBL (N = 129)): > 64 µg/mL | MIC50 ([2]; IMP (N = 20)): 32 µg/mL | MIC90 ([2]; IMP (N = 20)): > 64 µg/mL | MIC50 ([2]; KPC and OXA-48 (N = 12)): 64 µg/mL | MIC90 ([2]; KPC and OXA-48 (N = 12)): > 64 µg/mL | MIC50 ([2]; MBL negative (N = 34)): 64 µg/mL | MIC90 ([2]; MBL negative (N = 34)): > 64 µg/mL | MIC50 ([2]; NDN (N = 101)): 64 µg/mL | MIC90 ([2]; NDN (N = 101)): > 64 µg/mL | MIC50 ([2]; Non-CP CRE (N = 22)): 64 µg/mL | MIC90 ([2]; Non-CP CRE (N = 22)): > 64 µg/mL | MIC50 ([2]; VIM (N = 8)): > 64 µg/mL | MIC50 ([3]; CRE (N = 507)): > 64 µg/mL | MIC90 ([3]; CRE (N = 507)): > 64 µg/mL | MIC50 ([3]; KPC (N = 193)): > 64 µg/mL | MIC90 ([3]; KPC (N = 193)): > 64 µg/mL | MIC50 ([3]; MBL (N = 168)): > 64 µg/mL | MIC90 ([3]; MBL (N = 168)): > 64 µg/mL | MIC50 ([3]; Non-CP CRE (N = 50)): > 64 µg/mL | MIC90 ([3]; Non-CP CRE (N = 50)): > 64 µg/mL | MIC50 ([3]; OXA-48-like (N = 96)): > 64 µg/mL | MIC90 ([3]; OXA-48-like (N = 96)): > 64 µg/mL

C[C@@H](O)[C@H]1C(=O)N2C(C(=O)O)=C(S[C@@H]3CN[C@H](C(=O)N(C)C)C3)[C@H](C)[C@H]12 [MEM, meropenem]
MIC [1]: 0.25 µg/mL (≈ 0.652 µM) | MIC (PAM4801 producing GES-20): 8 µg/mL (≈ 20.9 µM) | MIC (PAM4689 producing KPC-3): 64 µg/mL (≈ 167 µM) | MIC (PAM4874 producing SHV-12): 0.25 µg/mL (≈ 0.652 µM) | MIC (PAM4876 producing OXA-72): 2 µg/mL (≈ 5.22 µM) | MIC (PAM4795 producing VIM-1): 4 µg/mL (≈ 10.4 µM) | MIC (PAM4880 producing L1): 32 µg/mL (≈ 83.4 µM) | MIC50 [2]: > 64 µg/mL | MIC90 [2]: > 64 µg/mL | MIC50 ([2]; All MBL (N = 129)): > 64 µg/mL | MIC90 ([2]; All MBL (N = 129)): > 64 µg/mL | MIC50 ([2]; IMP (N = 20)): 16 µg/mL | MIC90 ([2]; IMP (N = 20)): 64 µg/mL | MIC50 ([2]; KPC and OXA-48 (N = 12)): 32 µg/mL | MIC90 ([2]; KPC and OXA-48 (N = 12)): > 64 µg/mL | MIC50 ([2]; MBL negative (N = 34)): 16 µg/mL | MIC90 ([2]; MBL negative (N = 34)): > 64 µg/mL | MIC50 ([2]; NDN (N = 101)): > 64 µg/mL | MIC90 ([2]; NDN (N = 101)): > 64 µg/mL | MIC50 ([2]; Non-CP CRE (N = 22)): 16 µg/mL | MIC90 ([2]; Non-CP CRE (N = 22)): 32 µg/mL | MIC50 ([2]; VIM (N = 8)): > 64 µg/mL | MIC50 ([3]; CRE (N = 507)): 0.5 µg/mL | MIC90 ([3]; CRE (N = 507)): > 64 µg/mL | MIC50 ([3]; KPC (N = 193)): 16 µg/mL | MIC90 ([3]; KPC (N = 193)): > 64 µg/mL | MIC50 ([3]; MBL (N = 168)): 64 µg/mL | MIC90 ([3]; MBL (N = 168)): > 64 µg/mL | MIC50 ([3]; Non-CP CRE (N = 50)): 4 µg/mL | MIC90 ([3]; Non-CP CRE (N = 50)): 16 µg/mL | MIC50 ([3]; OXA-48-like (N = 96)): 16 µg/mL | MIC90 ([3]; OXA-48-like (N = 96)): 64 µg/mL
